From patent US20130310374A1, “Substituted Imidazoquinoline Derivatives” (PIRAMAL ENTERPRISES LIMITED`, priority 2010, published 2013)
Values belong to the compound of their own block, whether it stands above or below them.

Columns and labels:
U 87 MG = test: Cytotoxicity propidium iodide assay, U 87 MG; type: cell-based; settings: Homo sapiens; U 87 MG (glioblastoma), 48 hours treatment; read-out: IC50 Values in μM, C5c
Experimental: The assay was designed as in the reference, Anticancer Drugs, 2002, 13, 1-8, the disclosure of which is incorporated herein by reference for the teaching of the assay.
Cells from cell lines (ATCC) as mentioned in the table given below were seeded at a density of 3000 cells/well in a white opaque 96-well plate. Following incubation at 37° C./5% CO2 for a period of 18-24 hours, the cells were treated with various concentrations (stock solution was prepared in DMSO and subsequent dilutions were made in media as per ATCC guidelines) of the compounds of the present invention for a period of 48 hours. At the end of treatment, the culture medium was discarded, the cells were washed with 1×PBS and 200 μL of […] propidium iodide was added to each well. […] For analysis, the plates were warmed to RT, allowed to thaw and were read in PoleStar fluorimeter with the fluorescence setting. The percentage of viable cells in the non-treated set of wells was considered to be 100 and the percentage viability following treatment was calculated accordingly. IC50 values were calculated from graphs plotted using these percentages. IC50 values for certain compounds of present invention are depicted in Table 1 and % Inhibition of certain compounds of present invention are depicted in Table 2.

[1] = tested on: human PC3 xenograft tumors; test: Prostate cancer xenograft model (tumor growth inhibition in vivo); parameters: species or system mouse; settings: SCID mice, 3 mpk p.o. (Example 3a once daily and BID; Example 19 once daily), 15 days; FIG. 3A
Experimental: Animals: Severe combined immunodeficient (SCID) mice (Male and Female) 6 to 8 weeks old, were used. Animals were housed in suitable cages under specified pathogen-free conditions in rooms maintained at 23° C. and 50% humidity, with a 12-hour light/12-hour dark cycle. The mice were quarantined during the acclimatization period of at least a week.
Prostate cancer xenograft model: PC3 (human prostate cancer) cell line (ATCC) was maintained in RPMI 1640 (Gibco BRL, Pasley, UK) supplemented with 10% (v/v) FBS. The cells were incubated at 37° C. in a humidified atmosphere containing 5% CO2. Cells were passaged using trypsin/EDTA for cell detachment once every 3 days. On the day of tumor cell injection, cells were detached from the flasks with trypsin/EDTA, washed once in medium and re-suspended in serum free RPMI 1640 at 5 million cells/0.2 mL volume, and placed on ice. […]
Procedure: Tumor-bearing mice were randomized (n=7 per group) in four groups when the mean tumor volume was ˜100 mm^3. […] Twice a week, each xenograft was measured in two dimensions (a=length; b=width) with a caliper. Tumor volume (V) was determined by the following equation: V=ab^2/2
Tumor volumes were converted into tumor weights assuming a tumor density of 1 mm^3=1 mg. Tumor growth inhibition (TGI) for each group was calculated according to the following formula: […]

mTOR = target: T1, mTOR (Homo sapiens, UniProt P42345); test: mTOR inhibition assay (ProQinase); type: biochemical; settings: tested at ProQinase, Germany; read-out: IC50, mTOR enzyme activity
T1 construct: ProQinase, Germany (contract testing)
Experimental: The compounds of the present invention were tested at ProQinase, Germany.

[2] = tested on: Human umbilical vein endothelial cells (HUVECs); test: VEGF induced tube formation assay; type: cell-based; settings: HUVECs on Matrigel, compound 75 nM, 18 hours; FIG. 2
Experimental: Protocol for Tube Formation Assay
Cell Culture: Human umbilical vein endothelial cells (HUVECs) (ATCC) used in passages 2-7. The cells were grown in endothelial medium (Promocell, Germany) supplemented with 20% fetal bovine serum (FBS), 100 units/mL penicillin, 100 μg/mL streptomycin, 3 ng/mL basic fibroblast growth factor, and 5 units/mL heparin at 37° C. under a humidified 95% (v/v) mixture of air and CO2.
Tube Formation Assay: 250 μl of growth factor-reduced Matrigel (BD Biosciences) was pipetted into a 24 well tissue culture plate and polymerized for 30 minutes at 37° C. HUVECs incubated in endothelial media containing 1% FBS for 6 hours were harvested after trypsin treatment and suspended in endothelial media containing 1% FBS. Compounds of present invention (75 nM) were added to the cells for 30 minutes at RT before seeding and plated onto the layer of Matrigel at a density of 2×10^4 cells/well, and followed by the addition of 2 mL of 40 ng/mL VEGF. After 18 hours, the cultures were photographed.
Results: When HUVECs were placed on growth factor-reduced Matrigel in the presence of VEGF, VEGF led to the formation of elongated and robust tube-like structures, which were organized by much larger number of cells compared with the control.

SMILES: CC(C)(C#N)c1ccc(-n2c(=O)n(CC#N)c3cnc4ccc(-c5cnc(N)c(C(F)(F)F)c5)cc4c32)cn1 [Example 16, 2-(5-(8-(6-Amino-5-(trifluoromethyl)pyridin-3-yl)-3-(cyanomethyl)-2-oxo-2,3-dihydro-1H-imidazo[4,5-c]quinolin-1-yl)pyridin-2-yl)-2-methylpropanenitrile]
IC50 (U 87 MG): 7.75 µM

SMILES: COc1ccc(-n2c(=O)n(C)c3cnc4ccc(-c5cnc(N)c(C(F)(F)F)c5)cc4c32)cn1 [Example 19, 8-(6-Amino-5-(trifluoromethyl)pyridin-3-yl)-1-(6-methoxypyridin-3-yl)-3-methyl-1H-imidazo[4,5-c]quinolin-2(3H)-one]
IC50 (U 87 MG): 3.88 µM
Tumor growth in-vivo, PC3 xenograft [1]: effectively inhibit tumor growth in-vivo

IC50 (mTOR): 0.0044 µM
SMILES: CS(=O)(=O)O.Cn1c(=O)n(-c2ccc(C(C)(C)C#N)nc2)c2c3cc(-c4cnc(N)c(C(F)(F)F)c4)ccc3ncc21 [Example 3a, 8-(6-Amino-5-(trifluoromethyl)pyridin-3-yl)-1-(6-(2-cyanopropan-2-yl)pyridin-3-yl)-3-methyl-2-oxo-2,3-dihydro-1H-imidazo[4,5-c]quinolin-5-ium methanesulfonate]
Tumor growth in-vivo, PC3 xenograft [1]: effectively inhibit tumor growth in-vivo
VEGF (40 ng/mL) induced tube formation [2]: effectively abrogated the width and the length of endothelial tubes induced by VEGF
